# Data published in PubChem BioAssay AID1963972 (Molecular Pharmacology Branch, DTP, NCI, 2024).
# System: 945468-187-T-J2-PDC spheroids viability
# Test: Anticancer human tumor 945468-187-T-J2-PDC patient-derived rectal carcinoma cell line growth inhibition [PI3K]
# Details: spheroids with HUVEC and MSC; for IC50: curve of first compound; for viability, T/C: stronger effect = lower value
# From the text: Combinatorial screen of targeted agents with the PI3K inhibitors inavolisib, alpelisib, duvelisib, and copanlisib in multi-cell type tumor spheroids
# A high-throughput screen of multi-cell type tumor spheroids was designed to identify active combinations of targeted small molecules and PI3K pathway inhibitors. Complex spheroids include a stromal component modeled by human endothelial cells (HUVEC) and fibroblasts modeled by human mesenchymal stem cells (MSCs). The concentration ranges selected for each drug and investigational agent were based upon clinically achievable concentrations if the clinical Cmax of the agent was known.
# Compounds. The drugs and investigational agents: inavolisib (NSC800729), alpelisib (NSC765974), duvelisib (NSC772469), copanlisib (NSC816437), ipatasertib (NSC767898), afuresertib (NSC778305), talazoparib (NSC767125), sapanisertib (NSC764658), selumetinib (NSC741078), tovorafenib (DAY101, NSC766906), vemurafenib (NSC761431), ravoxertinib (NSC781343), sotorasib (NSC818433), MRTX1133 (NSC 836407), abemaciclib (NSC 768073), palbociclib (NSC758247), venetoclax (NSC 766270), SY5609 (NSC837396), enzalutamide (NSC755605), and darolutamide (NSC825331), were obtained from the National Cancer Institute (NCI) Developmental Therapeutics Program Chemical Repository. The FDA-approved anticancer drug set is available from the NCI Developmental Therapeutics Program. […] The stock solutions were prepared in dimethyl sulfoxide (DMSO, Sigma-Aldrich, St. Louis, MO, cat. D2650) at 800-fold the tested concentration and stored at -70 degrees C prior to their use. All drugs and investigational agents were tested over a range starting from a high concentration at or near the clinical Cmax and decreasing in half-log increments. If the clinical Cmax for an agent had not been determined, the highest concentration tested was 10 microM.
# Cell Culture. All cells were maintained in an incubator at 37 degrees C and 5% CO2 with 95% humidity. The PDC lines were cultured according to standard operating procedures established by the NCI PDMR (https://pdmr.cancer.gov/sops/default.htm). All PDCs were thawed and cultured in Matrigel-coated flasks prepared with a working solution of 1X Ham's F-12 nutrient mix, without supplementation (Invitrogen, Waltham, MA, cat. 11765054), 100 U/mL penicillin-streptomycin (Invitrogen, cat. 15140122), and 2.5% Matrigel (Corning Inc., Corning, NY, cat. 354248) for the first three passages. The 354836-022-R-J1-PDC, 475296-252-R-J1-PDC, and 997726-040-R-J2-PDC lines were cultured in 6A media, which includes advanced DMEM/F-12 (Thermo Fisher Scientific, cat. 12634028), 10 mM HEPES (Thermo Fisher Scientific, cat. 15630080), 1X GlutaMAX supplement (Thermo Fisher Scientific, cat. 35050061), 0.1 mg/mL primocin (InvivoGen, San Diego, CA, cat. ant-pm-2), 10% defined fetal bovine serum, heat inactivated (HyClone Laboratories Inc., Logan, UT, cat. SH30070.03HI), 50% L-WRN conditioned media (ATCC, cat. CRL-3276), 1.25 mM N-Acetyl-L-cysteine (Sigma-Aldrich, cat. A9165), 10 mM nicotinamide (Sigma-Aldrich, cat. N0636), 1X B-27 supplement (Thermo Fisher Scientific, cat. 17504044), 1X N-2 supplement (Thermo Fisher Scientific, cat. 17502048), and 10 microM Y-27632 dihydrochloride (Tocris Bioscience, Bristol, United Kingdom, cat. 1254). The 624824-186-R-J2-PDC line was cultured in 6C/Colon 1B media, which includes all 6A media components plus 50 ng/mL human EGF recombinant protein (Thermo Fisher Scientific, cat. PHG0311). […]
# 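Note: spheroids exposed to compounds for seven days before reading.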
smiles,measurement,setting,value
CCCS(=O)(=O)Nc1ccc(F)c(C(=O)c2c[nH]c3ncc(-c4ccc(Cl)cc4)cc23)c1F + CC(Nc1ccc2c(c1)OCCn1cc(N3C(=O)OCC3C(F)F)nc1-2)C(N)=O,IC50,second compound 0.00316 µM,> 10 µM
same,IC50,second compound 0.01 µM,4.28 µM
same,IC50,second compound 0.0316 µM,5.45 µM
same,IC50,second compound 0.1 µM,6.98 µM
same,IC50,second compound 0.316 µM,5.9 µM
same,IC50,second compound 1 µM,5.88 µM
same,"viability, T/C","second compound 0.00316 µM, first compound 0.0316 µM",115%
same,"viability, T/C","second compound 0.00316 µM, first compound 0.1 µM",115%
same,"viability, T/C","second compound 0.00316 µM, first compound 0.316 µM",113%
same,"viability, T/C","second compound 0.00316 µM, first compound 1 µM",97.1%
same,"viability, T/C","second compound 0.00316 µM, first compound 3.16 µM",74.7%
same,"viability, T/C","second compound 0.00316 µM, first compound 10 µM",53.6%
same,"viability, T/C","second compound 0.01 µM, first compound 0.0316 µM",113%
same,"viability, T/C","second compound 0.01 µM, first compound 0.1 µM",115%
same,"viability, T/C","second compound 0.01 µM, first compound 0.316 µM",105%
same,"viability, T/C","second compound 0.01 µM, first compound 1 µM",77.1%
same,"viability, T/C","second compound 0.01 µM, first compound 3.16 µM",74.8%
same,"viability, T/C","second compound 0.01 µM, first compound 10 µM",7.68%
same,"viability, T/C","second compound 0.0316 µM, first compound 0.0316 µM",103%
same,"viability, T/C","second compound 0.0316 µM, first compound 0.1 µM",98.8%
same,"viability, T/C","second compound 0.0316 µM, first compound 0.316 µM",98.8%
same,"viability, T/C","second compound 0.0316 µM, first compound 1 µM",92.1%
same,"viability, T/C","second compound 0.0316 µM, first compound 3.16 µM",89.2%
same,"viability, T/C","second compound 0.0316 µM, first compound 10 µM",6.32%
same,"viability, T/C","second compound 0.1 µM, first compound 0.0316 µM",92.3%
same,"viability, T/C","second compound 0.1 µM, first compound 0.1 µM",109%
same,"viability, T/C","second compound 0.1 µM, first compound 0.316 µM",107%
same,"viability, T/C","second compound 0.1 µM, first compound 1 µM",92.8%
same,"viability, T/C","second compound 0.1 µM, first compound 3.16 µM",90.2%
same,"viability, T/C","second compound 0.1 µM, first compound 10 µM",32.3%
same,"viability, T/C","second compound 0.316 µM, first compound 0.0316 µM",83.4%
same,"viability, T/C","second compound 0.316 µM, first compound 0.1 µM",88.8%
same,"viability, T/C","second compound 0.316 µM, first compound 0.316 µM",85.3%
same,"viability, T/C","second compound 0.316 µM, first compound 1 µM",85.8%
same,"viability, T/C","second compound 0.316 µM, first compound 3.16 µM",78.1%
same,"viability, T/C","second compound 0.316 µM, first compound 10 µM",26.1%
same,"viability, T/C","second compound 1 µM, first compound 0.0316 µM",78.2%
same,"viability, T/C","second compound 1 µM, first compound 0.1 µM",81%
same,"viability, T/C","second compound 1 µM, first compound 0.316 µM",77.4%
same,"viability, T/C","second compound 1 µM, first compound 1 µM",87.9%
same,"viability, T/C","second compound 1 µM, first compound 3.16 µM",80.3%
same,"viability, T/C","second compound 1 µM, first compound 10 µM",24%
